{"source": "patent US8680159B2", "about": "“Bradykinin 1 receptor modulating compounds” (Gruenenthal GmbH, priority 2010, dated 2014)"}
{"target": "T1, B1R receptor of the rat (CHO K1 cells stably transfected with the B1R gene of the rat) (Rattus norvegicus, UniProt P97583)", "T1 construct": "expressed in transfected cells; host or cells: CHO K1 cells (Chinese hamster ovary), stably transfected", "T1 sequence (P97583 1-337)": "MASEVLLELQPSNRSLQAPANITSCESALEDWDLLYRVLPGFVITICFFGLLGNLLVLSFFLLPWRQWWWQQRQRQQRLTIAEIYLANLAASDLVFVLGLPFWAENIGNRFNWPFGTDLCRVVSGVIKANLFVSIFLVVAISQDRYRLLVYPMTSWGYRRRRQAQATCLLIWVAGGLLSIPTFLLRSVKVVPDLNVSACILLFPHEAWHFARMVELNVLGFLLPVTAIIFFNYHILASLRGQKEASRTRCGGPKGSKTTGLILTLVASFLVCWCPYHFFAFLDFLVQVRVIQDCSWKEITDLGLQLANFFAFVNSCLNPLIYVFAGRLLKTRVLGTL", "assay": "Functional study on the bradykinin receptor 1 (B1R), Ca2+ fluorescence (Fluo-4) FLIPR/Novostar assay, rB1R cells", "format": "cell-based", "settings": "10 μM", "description": "(§1) The agonistic or antagonistic action of substances can be quantified on the bradykinin receptor 1 (B1R) of the species human and rat using ectopically expressing cell lines (CHO K1 cells) and with the aid of a Ca^2+-sensitive dye (Fluo-4) using a fluorescent imaging plate reader (FLIPR). The indication in % activation is based on the Ca^2+ signal after addition of Lys-Des-Arg^9-bradykinin (0.5 nM) or Des-Arg^9-bradykinin (100 nM). Antagonists lead to suppression of the Ca^2+ influx after the addition of the agonist. % Inhibition compared with the maximum achievable inhibition is indicated.\n(§2) The agonistic or antagonistic action of substances can be determined on the bradykinin receptor 1 (B1R) of the species human and rat using the following assay. According to this assay, the increase in intracellular Ca^2+ following administration of a B1R agonist is quantified with the aid of a Ca^2+-sensitive dye (Fluo-4 type, Molecular Probes Europe BV, Leiden, Netherlands) using a Fluorescent Imaging Plate Reader (FLIPR, Molecular Devices, Sunnyvale, USA) and/or using a Novostar (BMG Labtech GmbH, Offenburg, Germany).\n(§3) Chinese hamster ovary cells (CHO K1 cells) which have been stably transfected with the human B1R gene (hB1R cells) or with the B1R gene of the rat (rB1R cells) are used. For functional studies, the cells are plated out on black 96-well plates having a clear base (BD Biosciences, Heidelberg, Germany or Greiner, Frickenhausen, Germany) in a density of 20,000-35,000 cells/well. The cells are left overnight at 37° C. and with 5% CO2 in culture medium (hB1R cells: Nutrient Mixture Ham's F12, Gibco Invitrogen GmbH, Karlsruhe, Germany or DMEM, Sigma-Aldrich, Taufkirchen, Germany; rB1R cells: D-MEM/F12, Gibco Invitrogen GmbH, Karlsruhe, Germany), with 10 vol. % FBS (fetal bovine serum, Gibco Invitrogen GmbH, Karlsruhe, Germany or PAN Biotech GmbH, Aidenbach, Germany). On the following day, the cells are loaded for 60 minutes at 37° C. with 2.13 μM Fluo-4 (Molecular Probes Europe BV, Leiden, Netherlands) in HBSS buffer (Hank's buffered saline solution, Gibco Invitrogen GmbH, Karlsruhe, Germany) […] (Sigma-Aldrich, Taufkirchen, Germany) and 10 mM HEPES (Sigma-Aldrich, Taufkirchen, Germany). The plates are then washed twice with HBSS buffer, and HBSS buffer additionally containing 0.1% BSA (bovine serum albumin; Sigma-Aldrich, Taufkirchen, Germany), 5.6 mM glucose and 0.05% gelatin (Merck KGaA, Darmstadt, Germany) is added to the plates. After incubation for a further 20 minutes at room temperature, the plates are inserted into the FLIPR or Novostar for Ca^2+ measurement. Alternatively, washing is carried out with buffer A (15 mM HEPES, 80 mM NaCl, 5 mM KCl, 1.2 mM CaCl2, 0.7 mM MgSO4, 2 g/l glucose, 2.5 mM probenecid) followed by loading with buffer A with added 2.5 μM Fluo-4 and 0.025% Pluronic F127 (Sigma-Aldrich, Taufkirchen, Germany). The cells are then washed twice with buffer A and incubated for 30 minutes at room temperature with buffer A additionally containing 0.05% BSA and 0.05% gelatin and are then inserted into the FLIPR or Novostar for Ca^2+ measurement. The Ca^2+-dependent fluorescence is measured before and after the addition of substances (λex=488 nm, λem=540 nm). Quantification is carried out by measuring the highest fluorescence intensity (FC, fluorescence counts) over time.\n(§4) The FLIPR protocol consists of 2 substance additions, which are pipetted in the FLIPR. In the case of measurements using the Novostar, only the second substance addition is pipetted in the device. Both devices measure the fluorescence intensity over time. Test substances (10 μM) are first pipetted onto the cells and the intracellular Ca^2+ increase is compared with the control (hB1R: Lys-Des-Arg^9-bradykinin>=50 nM; rB1R: Des-Arg^9-bradykinin>=1 μM). This gives the % activation, based on the Ca^2+ signal after addition of Lys-Des-Arg^9-bradykinin (>=50 nM) or Des-Arg^9-bradykinin (>=1 μM). […]", "units": {"% Inhibition (r-B1R) at 10 μM": "%"}}
{"compound": "CN(C(=O)NC1CC(C)(C)c2ccc(C(=O)N(C)C3CCN(c4ccncc4)CC3)cc21)c1ccccc1Cl", "note": "(stereo not shown) [CC_H-245, 3-[[(2-Chlorophenyl)-methyl-carbamoyl]amino]-N,1,1-trimethyl-N-(1-pyridin-4-yl-piperidin-4-yl)-2,3-dihydro-indene-5-carboxylic acid amide]", "% Inhibition (r-B1R) at 10 μM": 107}
{"target": "T1, B1R receptor of the rat (CHO K1 cells stably transfected with the B1R gene of the rat)", "assay": "Functional study on the bradykinin receptor 1 (B1R), Ca2+ fluorescence (Fluo-4) FLIPR/Novostar assay, rB1R cells", "format": "cell-based", "settings": "CHO-K1, 10 μM, read-out: % Inhibition (r-B1R) at 10 μM", "description": "as §1, §2, §3, §4", "units": {"inhibition at 10 µM": "%"}}
{"compound": "CN(C(=O)c1ccc2c(c1)C(N(C)C(=O)Nc1cc(Cl)ccc1Cl)CC2)C1CCN(c2ccncc2)CC1", "note": "(stereo not shown) [CC_H-221, 3-[[(2,5-Dichloro-phenyl)-carbamoyl]-methyl-amino]-N-methyl-N-(1-pyridin-4-yl-piperidin-4-yl)-2,3-dihydro-1H-indene-5-carboxylic acid amide]", "inhibition at 10 µM": 67}
{"compound": "CN(C(=O)c1ccc2c(c1)C(NC(=O)c1cc(F)ccc1Cl)CC2(C)C)C1CCN(c2ccncc2)CC1", "note": "(stereo not shown) [CC_H-222, 3-[(2-Chloro-5-fluoro-benzoyl)amino]-N,1,1-trimethyl-N-(1-pyridin-4-yl-piperidin-4-yl)-2,3-dihydro-indene-5-carboxylic acid amide]", "inhibition at 10 µM": 110}
{"compound": "CN(C(=O)c1ccc2c(c1)C(NC(=O)c1cc(C(F)(F)F)ccc1Cl)CC2(C)C)C1CCN(c2ccncc2)CC1", "note": "(stereo not shown) [CC_H-223, 3-[[2-Chloro-5-(trifluoromethyl)-benzoyl]amino]-N,1,1-trimethyl-N-(1-pyridin-4-yl-piperidin-4-yl)-2,3-dihydro-indene-5-carboxylic acid amide]", "inhibition at 10 µM": 109}
{"compound": "Cc1ccc(F)c(C(=O)NC2CC(C)(C)c3ccc(C(=O)N(C)C4CCN(c5ccncc5)CC4)cc32)c1Cl", "note": "(stereo not shown) [CC_H-224, 3-[(2-Chloro-6-fluoro-3-methyl-benzoyl)amino]-N,1,1-trimethyl-N-(1-pyridin-4-yl-piperidin-4-yl)-2,3-dihydro-indene-5-carboxylic acid amide]", "inhibition at 10 µM": 110}
{"compound": "CN(C(=O)c1ccc2c(c1)C(NC(=O)c1c(Cl)cccc1C(F)(F)F)CC2(C)C)C1CCN(c2ccncc2)CC1", "note": "(stereo not shown) [CC_H-225, 3-[[2-Chloro-6-(trifluoromethyl)-benzoyl]amino]-N,1,1-trimethyl-N-(1-pyridin-4-yl-piperidin-4-yl)-2,3-dihydro-indene-5-carboxylic acid amide]", "inhibition at 10 µM": 112}
{"compound": "CN(C(=O)c1ccc2c(c1)C(NC(=O)C1CC1)CC2(C)C)C1CCN(c2ccncc2)CC1", "note": "(stereo not shown) [CC_H-226, 3-(Cyclopropanecarbonylamino)-N,1,1-trimethyl-N-(1-pyridin-4-yl-piperidin-4-yl)-2,3-dihydro-indene-5-carboxylic acid amide]", "inhibition at 10 µM": 99}
{"compound": "CN(C(=O)c1ccc2c(c1)C(NC(=O)CC(C)(C)C)CC2(C)C)C1CCN(c2ccncc2)CC1", "note": "(stereo not shown) [CC_H-227, 3-(3,3-Dimethyl-butanoylamino)-N,1,1-trimethyl-N-(1-pyridin-4-yl-piperidin-4-yl)-2,3-dihydro-indene-5-carboxylic acid amide]", "inhibition at 10 µM": 112}
{"compound": "COCC(=O)NC1CC(C)(C)c2ccc(C(=O)N(C)C3CCN(c4ccncc4)CC3)cc21", "note": "(stereo not shown) [CC_H-228, 3-[(2-Methoxy-acetyl)amino]-N,1,1-trimethyl-N-(1-pyridin-4-yl-piperidin-4-yl)-2,3-dihydro-indene-5-carboxylic acid amide]", "inhibition at 10 µM": 107}
{"compound": "CC(=O)NC1CC(C)(C)c2ccc(C(=O)N(C)C3CCN(c4ccncc4)CC3)cc21", "note": "(stereo not shown) [CC_H-229, 3-Acetylamino-N,1,1-trimethyl-N-(1-pyridin-4-yl-piperidin-4-yl)-2,3-dihydro-indene-5-carboxylic acid amide]", "inhibition at 10 µM": 104}
{"compound": "Cc1cccc(Cl)c1S(=O)(=O)NC1CC(C)(C)c2ccc(C(=O)N(C)C3CCN(c4ccncc4)CC3)cc21", "note": "(stereo not shown) [CC_H-230, 3-[[(2-Chloro-6-methyl-phenyl)sulfonyl]amino]-N,1,1-trimethyl-N-(1-pyridin-4-yl-piperidin-4-yl)-2,3-dihydro-indene-5-carboxylic acid amide]", "inhibition at 10 µM": 110}
{"compound": "CN(C(=O)c1ccc2c(c1)C(NC(=O)c1cccc(C(F)(F)F)c1Cl)CC2(C)C)C1CCN(c2ccncc2)CC1", "note": "(stereo not shown) [CC_H-231, 3-[[2-Chloro-3-(trifluoromethyl)-benzoyl]amino]-N,1,1-trimethyl-N-(1-pyridin-4-yl-piperidin-4-yl)-2,3-dihydro-indene-5-carboxylic acid amide]", "inhibition at 10 µM": 111}
{"compound": "CN(C(=O)c1ccc2c(c1)C(NC(=O)Nc1ccccc1Cl)CC2(C)C)C1CCN(c2ccncc2)CC1", "note": "(stereo not shown) [CC_H-232, 3-[[(2-Chlorophenyl)-carbamoyl]amino]-N,1,1-trimethyl-N-(1-pyridin-4-yl-piperidin-4-yl)-2,3-dihydro-indene-5-carboxylic acid amide]", "inhibition at 10 µM": 96}
{"compound": "CN(C(=O)c1ccc2c(c1)C(NC(=O)Nc1cccc(Cl)c1)CC2(C)C)C1CCN(c2ccncc2)CC1", "note": "(stereo not shown) [CC_H-233, 3-[[(3-Chlorophenyl)-carbamoyl]amino]-N,1,1-trimethyl-N-(1-pyridin-4-yl-piperidin-4-yl)-2,3-dihydro-indene-5-carboxylic acid amide]", "inhibition at 10 µM": 63}
{"compound": "CN(C(=O)c1ccc2c(c1)C(NC(=O)Nc1c(Cl)cccc1Cl)CC2(C)C)C1CCN(c2ccncc2)CC1", "note": "(stereo not shown) [CC_H-234, 3-[[(2,6-Dichloro-phenyl)-carbamoyl]amino]-N,1,1-trimethyl-N-(1-pyridin-4-yl-piperidin-4-yl)-2,3-dihydro-indene-5-carboxylic acid amide]", "inhibition at 10 µM": 108}
{"compound": "CN(C(=O)c1ccc2c(c1)C(NC(=O)Nc1cccc(Cl)c1Cl)CC2(C)C)C1CCN(c2ccncc2)CC1", "note": "(stereo not shown) [CC_H-235, 3-[[(2,3-Dichloro-phenyl)-carbamoyl]amino]-N,1,1-trimethyl-N-(1-pyridin-4-yl-piperidin-4-yl)-2,3-dihydro-indene-5-carboxylic acid amide]", "inhibition at 10 µM": 65}
{"compound": "CN(C(=O)c1ccc2c(c1)C(NC(=O)Nc1cc(Cl)ccc1Cl)CC2(C)C)C1CCN(c2ccncc2)CC1", "note": "(stereo not shown) [CC_H-236, 3-[[(2,5-Dichloro-phenyl)-carbamoyl]amino]-N,1,1-trimethyl-N-(1-pyridin-4-yl-piperidin-4-yl)-2,3-dihydro-indene-5-carboxylic acid amide]", "inhibition at 10 µM": 52}
{"compound": "CN(C(=O)c1ccc2c(c1)C(NC(=O)Nc1ccc(F)c(Cl)c1)CC2(C)C)C1CCN(c2ccncc2)CC1", "note": "(stereo not shown) [CC_H-242, 3-[[(3-Chloro-4-fluoro-phenyl)-carbamoyl]amino]-N,1,1-trimethyl-N-(1-pyridin-4-yl-piperidin-4-yl)-2,3-dihydro-indene-5-carboxylic acid amide]", "inhibition at 10 µM": 52}
{"compound": "CN(C(=O)c1ccc2c(c1)C(NC(=O)c1cc(F)ccc1Cl)CCC2)C1CCN(c2ccncc2)CC1", "note": "(stereo not shown) [CC_H-246, 8-[(2-Chloro-5-fluoro-benzoyl)amino]-N-methyl-N-(1-pyridin-4-yl-piperidin-4-yl)-5,6,7,8-tetrahydro-naphthalene-2-carboxylic acid amide]", "inhibition at 10 µM": 112}
